US11306064B2, “Benzothia(di)azepine compounds and their use as bile acid modulators” (Albireo AB, priority 2018, dated 2022)

Biological target: T1, Human ASBT (Homo sapiens, UniProt Q12908)
T1 construct: expressed in transfected cells; kept under Puromycin selection
T1 sequence (Q12908 1-348): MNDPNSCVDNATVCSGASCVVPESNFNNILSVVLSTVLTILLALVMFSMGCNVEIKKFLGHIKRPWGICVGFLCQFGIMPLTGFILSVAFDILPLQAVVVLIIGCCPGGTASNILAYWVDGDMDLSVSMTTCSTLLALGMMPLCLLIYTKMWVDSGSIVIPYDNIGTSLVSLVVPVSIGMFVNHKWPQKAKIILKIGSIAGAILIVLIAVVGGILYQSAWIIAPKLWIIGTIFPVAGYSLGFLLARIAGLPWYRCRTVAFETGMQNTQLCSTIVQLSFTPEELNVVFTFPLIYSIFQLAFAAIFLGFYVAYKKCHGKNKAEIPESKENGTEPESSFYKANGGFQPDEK
Assay: ASBT (h/m) assay: 3H-taurocholic acid uptake in human ASBT-overexpressing cells
Assay type: cell-based
Details: 0.25 μM 3H-taurocholic acid and 5 μM cold taurocholic acid, 20 minutes, read-out: hASBT IC50
Method in brief: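 ASBT-overexpressing cells, seeded 48 h earlier, took up 0.25 µM 3H-taurocholic acid plus 5 µM cold taurocholate for 20 min at 37 °C with inhibitor (10-point 3-fold series, top 10 µM, 0.2% DMSO). Ice stop, washes with cold 1 mM taurocholate in HEPES-HBSS pH 7.4, scintillation counting.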

SMILES | IC50
CCCCC1(CC)CN(c2ccccc2)c2cc(Br)c(O/C=C/C(=O)O)cc2S(=O)(=O)C1 (single isomer, unassigned) [Example 6, (E)-3-((7-bromo-3-butyl-3-ethyl-1,1-dioxido-5-phenyl-2,3,4,5-tetrahydro-1,5-benzothiazepin-8-yl)oxy)acrylic acid] | 57 nM
CCCCC1(CCCC)CN(c2ccccc2)c2cc(SC)c(O/C=C(\F)C(=O)O)cc2S(=O)(=O)C1 [Example 11, (Z)-3-((3,3-dibutyl-7-(methylthio)-1,1-dioxido-5-phenyl-2,3,4,5-tetrahydro-1,5-benzothiazepin-8-yl)oxy)-2-fluoroacrylic acid] | 48 nM
CCC1(CC)CN(c2ccccc2)c2cc(SC)c(O/C=C(\F)C(=O)O)cc2S(=O)(=O)C1 [Example 44, (Z)-3-((3,3-diethyl-7-(methylthio)-1,1-dioxido-5-phenyl-2,3,4,5-tetrahydro-1,5-benzothiazepin-8-yl)oxy)-2-fluoroacrylic Acid] | 257 nM

The next molecules have a lower IC50 than those just listed; values first:

IC50 | SMILES
19 nM | CCCCC1(CC)CN(c2ccccc2)c2cc(SC)c(O/C=C/C(=O)O)cc2S(=O)(=O)C1 (single isomer, unassigned) [Example 18, (E)-3-((3-butyl-3-ethyl-7-(methylthio)-1,1-dioxido-5-phenyl-2,3,4,5-tetrahydro-1,5-benzothiazepin-8-yl)oxy)acrylic acid]
21 nM | CCCCC1(CC)CN(c2ccccc2)c2cc(SC)c(O/C=C(\F)C(=O)O)cc2S(=O)(=O)C1 (single isomer, unassigned) [Example 43, (Z)-3-((3-butyl-3-ethyl-7-(methylthio)-1,1-dioxido-5-phenyl-2,3,4,5-tetrahydro-1,5-benzothiazepin-8-yl)oxy)-2-fluoroacrylic acid]
42 nM | CCCCC1(CC)CN(c2ccccc2)c2cc(Cl)c(O/C=C(\F)C(=O)O)cc2S(=O)(=O)C1 (single isomer, unassigned) [Example 48, (Z)-3-((3-butyl-7-chloro-3-ethyl-1,1-dioxido-5-phenyl-2,3,4,5-tetrahydro-1,5-benzothiazepin-8-yl)oxy)-2-fluoroacrylic acid]
